What was measured:
[1] = Example 2.1 rhamnolipid precipitation, filtration, centrifugation: lanthanum; details: for Treatment 2: Rhamnolipid and Filtration Cf / Treatment 3: Rhamnolipid and Centrifugation Cc / Treatment 1: Rhamnolipid Only Cr: lanthanum concentration after treatment; for Treatment 1: Rhamnolipid Only (Rr) efficiency of removal / Treatment 2: Rhamnolipid and Filtration (Rf) efficiency of removal / Treatment 3: Rhamnolipid and Centrifugation (Rc) efficiency of removal: lanthanum
Protocol: (§1) Structural variants of synthetic glycolipids were used to show the effect of the number and length of the hydrophobic tail(s) on rhamnolipid as a chemical precipitant. […] Solutions (10 mM) were made using nanopure water (≥18 MΩ-cm) then adjusted to a pH of 6.9±0.05 with HNO3 and NaOH. These solutions were made in advance and stored in the cold room for up to one month. They were brought to room temperature before each experiment.
(§2) Three metals were tested for binding with rhamnolipid. Lead as […] (Fisher Scientific, Waltham, MA, 99% purity), was chosen to represent a metal with high rhamnolipid-metal conditional stability constant; lanthanum as La(NO3)3 6(H2O) (Sigma-Aldrich, St. Louis, MO, 99.99% purity) was chosen as a representative REE; and magnesium as Mg(NO3)2 6(H2O) (Sigma-Aldrich, St. Louis, MO, 99% purity) was chosen to represent a metal with a low rhamnolipid-metal conditional stability constant (Hogan et al., 2017). Metal solutions (5 mM) were made using nanopure water (≥18 MΩ-cm) in 20 ml glass scintillation vials. All solutions were used within 15 min to ensure minimal adsorption to the glass vial.
(§3) Three glycolipid-based treatments were evaluated to remove metal from solution: (1) the addition of glycolipid with no further treatment (gravitational precipitation), (2) the addition of a glycolipid followed by filtration or (3) the addition of a glycolipid followed by centrifugation. Each metal (Pb, La, and Mg) was evaluated separately with each of the glycolipid structures. For each experiment, a metal solution was mixed with a glycolipid solution in a 1.7 ml reaction tube at varying molar ratios of glycolipid to metal: 0:1 (glycolipid-free control), 2:1, 5:1, and 10:1. The reactions were mixed in the order of nanopure water (≥18 MΩ-cm), glycolipid solution (10 mM), then metal solution (5 mM). The metal and glycolipid solutions were continuously stirred as they were aliquoted into the reaction tubes. The experiment was performed in triplicate.
(§4) The reaction tubes were mixed overnight (16 to 24 h) and then three samples were collected from each tube to measure the effect of each of the three treatments: a glycolipid only treatment sample, a filtration treatment sample, and a centrifugation treatment sample. Briefly, for the glycolipid only treatment samples all tubes were vortexed for approximately 5 sec immediately before removing 0.1 ml into a dilution tube of 2% trace metal grade nitric acid (12 to 14 ml) to minimize the settling of particles. For the filtration samples each reaction tube was vortexed for 5 sec and then a 0.6 ml aliquot was collected with a 1 ml syringe. A GHP acrodisc disk filter (hydrophilic polypropylene membrane, 0.45 μm pore size, 25 mm disc diameter) from Pall Life Sciences (Port Washington, New York) was then placed onto the end of the syringe and the solution was pushed through the filter. The void space in the disk filter holds approximately 0.5 ml, therefore around 0.1 ml of filtrate was collected into a dilution tube. For the centrifugation sample, the remaining solution was centrifuged at 10,000 RCF for 15 min. Approximately 0.1 ml of the supernatant was aliquoted into a dilution tube. Following collection, all samples were taken for metal analysis using ICP-MS.

[2] = Example 2.1 rhamnolipid precipitation, filtration, centrifugation: magnesium; details: for Treatment 2: Rhamnolipid and Filtration Cf / Treatment 3: Rhamnolipid and Centrifugation Cc / Treatment 1: Rhamnolipid Only Cr: magnesium concentration after treatment
Protocol: as §1, §2, §3, §4

CCCCCCCCCC(CC(=O)O)OC(=O)CC(CCCCCCCCC)OC1O[C@@H](C)[C@H](O)[C@@H](O)[C@H]1O (stereo partly drawn) [Rha C12C12, rhamnosyl-β-hydroxydodecanoyl-62-hydroxydodecanoate]
Treatment 2: Rhamnolipid and Filtration Cf ([1]; molar ratio 2 to 1): 0.119 ± 0.007 mmol/L | Treatment 3: Rhamnolipid and Centrifugation Cc ([1]; molar ratio 2 to 1): 0.164 ± 0.013 mmol/L | Treatment 1: Rhamnolipid Only Cr ([1]; molar ratio 5 to 1): 0.197 ± 0.006 mmol/L | Treatment 2: Rhamnolipid and Filtration Cf ([1]; molar ratio 5 to 1): 0.044 ± 0.009 mmol/L | Treatment 3: Rhamnolipid and Centrifugation Cc ([1]; molar ratio 5 to 1): 0.074 ± 0.003 mmol/L | Treatment 1: Rhamnolipid Only Cr ([1]; molar ratio 10 to 1): 0.263 ± 0.007 mmol/L | Treatment 2: Rhamnolipid and Filtration Cf ([1]; molar ratio 10 to 1): 0.035 ± 0.001 mmol/L | Treatment 3: Rhamnolipid and Centrifugation Cc ([1]; molar ratio 10 to 1): 0.057 ± 0.004 mmol/L | Treatment 1: Rhamnolipid Only Cr ([1]; molar ratio rhamnolipid:lanthanum 2 to 1): 0.184 ± 0.014 mmol/L | Treatment 1: Rhamnolipid Only (Rr) efficiency of removal ([1]; molar ratio 2 to 1): (31.5%) | Treatment 2: Rhamnolipid and Filtration (Rf) efficiency of removal ([1]; molar ratio 2 to 1): (55.7%) | Treatment 3: Rhamnolipid and Centrifugation (Rc) efficiency of removal ([1]; molar ratio 2 to 1): (38.7%) | Treatment 1: Rhamnolipid Only (Rr) efficiency of removal ([1]; molar ratio 5 to 1): (26.4%) | Treatment 2: Rhamnolipid and Filtration (Rf) efficiency of removal ([1]; molar ratio 5 to 1): (83.7%) | Treatment 3: Rhamnolipid and Centrifugation (Rc) efficiency of removal ([1]; molar ratio 5 to 1): (72.4%) | Treatment 1: Rhamnolipid Only (Rr) efficiency of removal ([1]; molar ratio 10 to 1): (2.0%) | Treatment 2: Rhamnolipid and Filtration (Rf) efficiency of removal ([1]; molar ratio 10 to 1): (86.9%) | Treatment 3: Rhamnolipid and Centrifugation (Rc) efficiency of removal ([1]; molar ratio 10 to 1): (78.7%) | Treatment 2: Rhamnolipid and Filtration Cf ([2]; molar ratio 2 to 1): 0.182 ± 0.055 mmol/L | Treatment 3: Rhamnolipid and Centrifugation Cc ([2]; molar ratio 2 to 1): 0.276 ± 0.005 mmol/L | Treatment 1: Rhamnolipid Only Cr ([2]; molar ratio 5 to 1): 0.285 ± 0.005 mmol/L | Treatment 2: Rhamnolipid and Filtration Cf ([2]; molar ratio 5 to 1): 0.135 ± 0.074 mmol/L | Treatment 3: Rhamnolipid and Centrifugation Cc ([2]; molar ratio 5 to 1): 0.273 ± 0.014 mmol/L | Treatment 1: Rhamnolipid Only Cr ([2]; molar ratio 10 to 1): 0.285 ± 0.012 mmol/L | Treatment 2: Rhamnolipid and Filtration Cf ([2]; molar ratio 10 to 1): 0.008 ± 0.004 mmol/L | Treatment 3: Rhamnolipid and Centrifugation Cc ([2]; molar ratio 10 to 1): 0.266 ± 0.012 mmol/L | Treatment 1: Rhamnolipid Only Cr ([2]; molar ratio rhamnolipid:magnesium 2 to 1): 0.281 ± 0.002 mmol/L | Treatment 2: Rhamnolipid and Filtration (Rf) efficiency of removal ([2]; magnesium, molar ratio 2 to 1): (32.1%) | Treatment 2: Rhamnolipid and Filtration (Rf) efficiency of removal ([2]; magnesium, molar ratio 5 to 1): (49.4%) | Treatment 2: Rhamnolipid and Filtration (Rf) efficiency of removal ([2]; magnesium, molar ratio 10 to 1): (97.1%) | Treatment 3: Rhamnolipid and Centrifugation (Rc) efficiency of removal ([2]; magnesium, molar ratio 10 to 1): (0.4%)
